Where two headings read alike, the source gives them in different places.
Legend:
CYP2C19 = CYP2C19 (Homo sapiens, UniProt P33261); format: biochemical; details: 10 μM inhibitor; cotinine substrate; CYP2C19 microsomes
UGT2B17 = molecular target: T1, UGT2B17 (Homo sapiens, UniProt O75795); format: biochemical; details: UGT2B17 microsomes; 3HC as substrate; screening
T1 sequence (O75795 24-530): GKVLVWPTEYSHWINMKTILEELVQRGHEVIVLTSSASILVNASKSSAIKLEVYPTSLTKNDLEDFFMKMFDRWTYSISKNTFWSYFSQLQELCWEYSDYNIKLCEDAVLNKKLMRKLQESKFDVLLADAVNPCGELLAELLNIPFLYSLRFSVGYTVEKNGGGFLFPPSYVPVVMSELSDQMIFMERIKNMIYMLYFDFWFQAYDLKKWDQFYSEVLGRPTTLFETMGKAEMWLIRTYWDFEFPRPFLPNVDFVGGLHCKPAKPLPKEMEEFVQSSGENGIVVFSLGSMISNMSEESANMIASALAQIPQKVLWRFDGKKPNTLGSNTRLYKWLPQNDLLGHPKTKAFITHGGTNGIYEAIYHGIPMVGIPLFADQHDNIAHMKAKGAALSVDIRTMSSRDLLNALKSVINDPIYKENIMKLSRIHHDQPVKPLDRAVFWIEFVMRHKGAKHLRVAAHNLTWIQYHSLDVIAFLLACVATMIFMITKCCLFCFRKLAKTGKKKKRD

[1] = to protein and labware; cited from earlier work
UGT2B7 = molecular target: T2, UGT2B7 (Homo sapiens, UniProt P16662); format: biochemical; details: for decrease in 3HC-Gluc formation: 3HC 30 mM, UGT2B7 microsomes
T2 sequence (P16662 24-529): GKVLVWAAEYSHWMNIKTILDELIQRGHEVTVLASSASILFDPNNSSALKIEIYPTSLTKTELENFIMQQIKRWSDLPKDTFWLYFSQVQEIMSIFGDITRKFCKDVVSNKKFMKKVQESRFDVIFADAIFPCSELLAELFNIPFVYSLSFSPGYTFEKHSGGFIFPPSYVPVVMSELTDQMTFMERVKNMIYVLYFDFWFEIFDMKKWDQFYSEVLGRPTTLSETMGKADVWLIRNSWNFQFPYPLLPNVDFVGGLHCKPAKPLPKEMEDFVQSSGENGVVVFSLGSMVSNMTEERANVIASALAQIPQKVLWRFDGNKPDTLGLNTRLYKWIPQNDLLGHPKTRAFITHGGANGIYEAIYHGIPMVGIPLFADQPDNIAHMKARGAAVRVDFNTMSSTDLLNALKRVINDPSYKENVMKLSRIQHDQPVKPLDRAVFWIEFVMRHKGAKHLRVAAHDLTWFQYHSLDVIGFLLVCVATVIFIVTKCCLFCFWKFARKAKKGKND

Sequence of CYP2C19 (P33261 whole entry): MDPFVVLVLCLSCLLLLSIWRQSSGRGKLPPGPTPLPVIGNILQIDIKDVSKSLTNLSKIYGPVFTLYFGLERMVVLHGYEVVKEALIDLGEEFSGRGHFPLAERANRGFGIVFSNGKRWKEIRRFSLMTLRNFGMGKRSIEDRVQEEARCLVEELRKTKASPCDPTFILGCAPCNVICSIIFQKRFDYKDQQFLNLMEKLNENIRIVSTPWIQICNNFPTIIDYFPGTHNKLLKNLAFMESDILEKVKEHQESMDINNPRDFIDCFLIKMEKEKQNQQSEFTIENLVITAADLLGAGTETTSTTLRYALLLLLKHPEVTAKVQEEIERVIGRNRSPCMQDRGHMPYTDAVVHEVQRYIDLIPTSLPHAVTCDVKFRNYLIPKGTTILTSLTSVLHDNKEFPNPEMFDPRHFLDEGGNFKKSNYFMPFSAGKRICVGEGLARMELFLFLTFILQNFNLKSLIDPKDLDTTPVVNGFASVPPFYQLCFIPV

SMILES	inhibition of COX formation (CYP2C19) [%]	effect on 3HC-Gluc formation (UGT2B17)	nonspecific binding [1]	decrease in 3HC-Gluc formation (UGT2B7; 1 μM CBD) [%]	decrease in 3HC-Gluc formation (UGT2B7; 10 μM CBD) [%]	inhibition at 100 μM (UGT2B7; human, microsomes from UGT2B7-overexpressing HEK293 cells, pH 7.4, probe 3HC (30 mM), 3HC-Gluc formation) [%]
C=C(C)[C@@H]1CCC(CO)=C[C@H]1c1c(O)cc(CCCCC)cc1O [7-OH-CBD, 7-hydroxy-cannabidiol]	15	–	–	–	–	–
C=C(C)[C@@H]1CCC(C)=C[C@H]1c1c(O)cc(CCCCC)cc1O [CBD, cannabidiol]	–	not inhibited	70–90%	35	55	> 50
